Measured values: patent publication US9522881B2, “Hydroxyindole carboxylic acid based inhibitors for oncogenic Src homology-2 domain containing protein tyrosine phosphatase-2 (SHP2)” (Indiana University Research and Technology Corporation, priority 2013, dated 2016)

Assays:
PTPσ = PTPσ (Homo sapiens (Human), UniProt Q13332); assay: PTP selectivity panel, pNPP; type: biochemical, mammalian; conditions: pNPP at Km
PTP1B = PTP1B (Homo sapiens (Human), UniProt P18031); assay: PTP selectivity panel, pNPP; type: biochemical, mammalian
mPTPA = mPTPA (Mycobacterium tuberculosis (strain ATCC 25618 / H37Rv), UniProt P9WIA1); assay: PTP selectivity panel, pNPP; type: biochemical; conditions: pNPP at Km
VHR = VHR (Homo sapiens (Human), UniProt P51452); assay: PTP selectivity panel, pNPP; type: biochemical, mammalian; conditions: pNPP at Km
[1] = test system: primary low density bone marrow cells bearing KITD814V; assay: Proliferation of primary bone marrow cells bearing KITD814V; type: cell-based, C57BL/6 mice; conditions: 1 μM and 5 μM, compared to II-B08
Method: FIG. 8B is a graph depicting WT hematopoietic stem and progenitor cells bearing KITD814V that were starved of serum and growth factors for 6 hours and subjected to proliferation assay in the presence or absence of indicated concentration of II-B08 or 11a-1 as analyzed in Example 6. Bars denote the mean thymidine incorporation (CPM±SD) performed in triplicate from one experiment. *p<0.05.
To further determine the effect of II-B08 and compound 11a-1 on primary bone marrow cells bearing oncogenic KITD814V, primary low density bone marrow cells from C57BL/6 mice were transduced with KITD814V and sorted cells were subjected to a proliferation assay in the presence or absence of the SHP2 inhibitors, II-B08 and compound 11a-1. To express WT KIT and KITD814V receptors in bone marrow cells, low density bone marrow cells were collected from WT mice, and pre-stimulated in IMDM supplemented with 20% FBS, 2% penicillin/streptomycin, and cytokines (100 ng/mL SCF, 100 ng/mL TPO, 50 ng/mL FLT3-L and 4 ng/mL IL-6) for 48 hours prior to retroviral infection on fibronectin fragments (Retronectin) in non-tissues culture plates. On the third day, cells were infected with 2 mL of high-titer retroviral supernatants for WT KIT or KITD814V prepared as described above. A second shot of viral infection was given 24 hours later. […]

Laforin = Laforin (Homo sapiens (Human), UniProt O95278); assay: PTP selectivity panel, pNPP; type: biochemical, mammalian; conditions: pNPP at Km
Sequence of Laforin (O95278 whole entry, species assumed): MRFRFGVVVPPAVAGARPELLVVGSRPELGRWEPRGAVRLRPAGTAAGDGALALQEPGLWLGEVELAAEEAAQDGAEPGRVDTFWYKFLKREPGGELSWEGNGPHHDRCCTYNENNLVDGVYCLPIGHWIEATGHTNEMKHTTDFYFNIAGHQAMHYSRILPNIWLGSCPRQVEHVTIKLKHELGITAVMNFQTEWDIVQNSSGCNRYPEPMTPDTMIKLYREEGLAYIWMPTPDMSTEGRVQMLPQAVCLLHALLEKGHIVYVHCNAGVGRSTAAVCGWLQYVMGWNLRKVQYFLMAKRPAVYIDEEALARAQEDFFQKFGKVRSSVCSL

Sequence of PTPσ (Q13332 30-1948): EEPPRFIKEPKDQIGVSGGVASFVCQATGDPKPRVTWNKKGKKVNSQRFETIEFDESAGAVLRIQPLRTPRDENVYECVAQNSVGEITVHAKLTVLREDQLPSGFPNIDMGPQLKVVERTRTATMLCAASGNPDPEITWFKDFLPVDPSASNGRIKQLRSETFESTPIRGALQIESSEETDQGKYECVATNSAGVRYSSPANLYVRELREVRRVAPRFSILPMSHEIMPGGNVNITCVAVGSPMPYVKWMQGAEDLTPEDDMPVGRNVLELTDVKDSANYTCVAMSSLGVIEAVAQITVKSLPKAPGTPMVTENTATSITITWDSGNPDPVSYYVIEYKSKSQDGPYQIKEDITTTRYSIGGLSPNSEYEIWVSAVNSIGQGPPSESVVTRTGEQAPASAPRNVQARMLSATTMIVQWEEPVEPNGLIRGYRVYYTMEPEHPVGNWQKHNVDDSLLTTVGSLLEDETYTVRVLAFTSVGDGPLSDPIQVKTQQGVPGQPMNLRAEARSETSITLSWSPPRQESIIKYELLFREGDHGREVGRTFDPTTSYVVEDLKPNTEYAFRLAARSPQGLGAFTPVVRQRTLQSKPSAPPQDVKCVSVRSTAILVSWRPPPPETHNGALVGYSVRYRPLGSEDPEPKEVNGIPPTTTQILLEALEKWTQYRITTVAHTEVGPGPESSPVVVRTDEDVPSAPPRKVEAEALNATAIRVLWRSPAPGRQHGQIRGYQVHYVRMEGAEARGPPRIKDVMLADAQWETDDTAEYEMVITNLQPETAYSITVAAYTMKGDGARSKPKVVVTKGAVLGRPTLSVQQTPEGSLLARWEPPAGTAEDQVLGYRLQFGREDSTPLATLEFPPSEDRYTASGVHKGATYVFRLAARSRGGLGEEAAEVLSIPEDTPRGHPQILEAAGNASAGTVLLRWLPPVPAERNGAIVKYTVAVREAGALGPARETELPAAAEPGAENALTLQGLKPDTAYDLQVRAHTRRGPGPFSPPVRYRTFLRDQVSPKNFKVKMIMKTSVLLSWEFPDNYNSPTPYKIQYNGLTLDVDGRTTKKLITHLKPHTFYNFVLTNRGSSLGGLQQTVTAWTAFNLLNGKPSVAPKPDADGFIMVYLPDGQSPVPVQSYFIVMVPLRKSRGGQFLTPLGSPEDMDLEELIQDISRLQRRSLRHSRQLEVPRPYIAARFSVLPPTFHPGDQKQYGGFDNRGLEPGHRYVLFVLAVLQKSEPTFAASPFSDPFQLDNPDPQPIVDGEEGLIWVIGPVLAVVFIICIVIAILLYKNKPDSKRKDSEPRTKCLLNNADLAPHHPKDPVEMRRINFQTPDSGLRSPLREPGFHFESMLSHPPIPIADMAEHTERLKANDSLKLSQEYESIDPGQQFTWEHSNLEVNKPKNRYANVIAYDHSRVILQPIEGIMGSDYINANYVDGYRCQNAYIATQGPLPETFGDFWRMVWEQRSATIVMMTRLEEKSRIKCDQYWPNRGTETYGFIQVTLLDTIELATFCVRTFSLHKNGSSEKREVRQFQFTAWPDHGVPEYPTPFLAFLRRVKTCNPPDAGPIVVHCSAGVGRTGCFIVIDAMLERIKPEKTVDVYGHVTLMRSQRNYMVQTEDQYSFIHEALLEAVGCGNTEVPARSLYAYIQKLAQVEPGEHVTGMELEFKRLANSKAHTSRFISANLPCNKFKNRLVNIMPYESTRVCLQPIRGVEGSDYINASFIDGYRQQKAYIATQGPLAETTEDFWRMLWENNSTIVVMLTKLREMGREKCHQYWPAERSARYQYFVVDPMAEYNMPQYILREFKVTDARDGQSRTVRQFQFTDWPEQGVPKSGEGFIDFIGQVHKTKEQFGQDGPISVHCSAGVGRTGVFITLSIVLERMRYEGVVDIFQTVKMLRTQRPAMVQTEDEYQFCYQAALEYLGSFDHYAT
Sequence of VHR (P51452 whole entry, species assumed): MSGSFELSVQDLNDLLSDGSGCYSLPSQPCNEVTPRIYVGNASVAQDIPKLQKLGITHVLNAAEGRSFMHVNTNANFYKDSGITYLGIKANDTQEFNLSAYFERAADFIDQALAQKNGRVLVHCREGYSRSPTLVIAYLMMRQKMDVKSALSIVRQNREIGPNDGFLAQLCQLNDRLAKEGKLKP
Sequence of PTP1B (P18031 whole entry, species assumed): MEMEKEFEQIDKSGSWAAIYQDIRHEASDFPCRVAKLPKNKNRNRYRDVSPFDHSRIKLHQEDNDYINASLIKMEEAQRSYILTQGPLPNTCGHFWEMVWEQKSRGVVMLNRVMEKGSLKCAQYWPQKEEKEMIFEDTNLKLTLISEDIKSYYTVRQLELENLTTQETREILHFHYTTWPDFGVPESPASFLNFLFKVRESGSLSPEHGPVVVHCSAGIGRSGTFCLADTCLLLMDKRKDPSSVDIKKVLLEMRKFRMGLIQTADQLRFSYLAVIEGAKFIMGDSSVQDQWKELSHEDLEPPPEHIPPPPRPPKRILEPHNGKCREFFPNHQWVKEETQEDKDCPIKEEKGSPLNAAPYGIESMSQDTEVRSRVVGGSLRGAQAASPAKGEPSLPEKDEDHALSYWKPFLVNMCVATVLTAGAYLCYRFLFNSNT

In the case of `Cn1c(-c2cccc(NC(=O)C(=O)Nc3ccc(-c4ccsc4)cc3)c2)c(I)c2cc(C(=O)O)c(O)cc21` [11a-1, 6-hydroxy-3-iodo-1-methyl-2-(3-(2-oxo-2-((4-(thiophen-3-yl)phenyl)amino)acetamido)phenyl)-1H-indole-5-carboxylic acid], the IC50 (PTPσ) is reported as 8.6 ± 0.4 µM, the “preference for SHP2 over PTP1B” value (PTP1B) is reported as 11 fold and the IC50 (mPTPA) is reported as 1.09 ± 0.04 µM. For the same molecule, the IC50 (VHR) was 3.19 ± 0.09 µM, the “growth of primary bone marrow cells bearing KITD814V” value [1] was “significant reduced growth” and the IC50 (Laforin) was 12.2 ± 2 µM.
